Test results taken from ChEMBL document CHEMBL5104131, “Pyrimidine-conjugated fluoroquinolones as new potential broad-spectrum antibacterial agents” (Bioorg Med Chem Lett, 2022).
Converted amounts (≈) assume the structure as drawn. The source made the active and inactive calls. No cut-off for these calls is given here.

Legend:
Staphylococcus aureus [1] = assay: Antibacterial activity against methicillin-resistant Staphylococcus aureus N315 assessed as bacterial growth inhibition by serial dilution method; type: functional
Enterococcus faecalis [2] = assay: Antibacterial activity against Enterococcus faecalis assessed as bacterial growth inhibition by serial dilution method; type: functional
Staphylococcus aureus [3] = assay: Antibacterial activity against Staphylococcus aureus assessed as bacterial growth inhibition by serial dilution method; type: functional
Staphylococcus aureus [4] = assay: Antibacterial activity against Staphylococcus aureus ATCC 25923 assessed as bacterial growth inhibition by serial dilution method; type: functional
Staphylococcus aureus [5] = assay: Antibacterial activity against Staphylococcus aureus ATCC 29213 assessed as bacterial growth inhibition by serial dilution method; type: functional
Klebsiella pneumoniae = assay: Antibacterial activity against Klebsiella pneumoniae assessed as bacterial growth inhibition by serial dilution method; type: functional
Escherichia coli [6] = assay: Antibacterial activity against Escherichia coli assessed as bacterial growth inhibition by serial dilution method; type: functional
Escherichia coli [7] = assay: Antibacterial activity against Escherichia coli ATCC 25922 assessed as bacterial growth inhibition by serial dilution method; type: functional
Pseudomonas aeruginosa [8] = assay: Antibacterial activity against Pseudomonas aeruginosa assessed as bacterial growth inhibition by serial dilution method; type: functional
Pseudomonas aeruginosa [9] = assay: Antibacterial activity against Pseudomonas aeruginosa ATCC 27853 assessed as bacterial growth inhibition by serial dilution method; type: functional
Acinetobacter baumannii = assay: Antibacterial activity against Acinetobacter baumannii assessed as bacterial growth inhibition by serial dilution method; type: functional
Aspergillus fumigatus = assay: Antifungal activity against Aspergillus fumigatus assessed as inhibition of fungal growth; type: functional
Enterococcus faecalis [10] = assay: Potency index, ratio of norfloxacin MIC to test compound MIC for antibacterial activity against Enterococcus faecalis assessed as bacterial growth inhibition by serial dilution method; type: functional
Enterococcus faecalis [11] = assay: Potency index, ratio of ciprofloxacin MIC to test compound MIC for antibacterial activity against Enterococcus faecalis assessed as bacterial growth inhibition by serial dilution method; type: functional
Staphylococcus aureus [12] = assay: Potency index, ratio of norfloxacin MIC to test compound MIC for antibacterial activity against Staphylococcus aureus ATCC 25923 assessed as bacterial growth inhibition by serial dilution method; type: functional
Staphylococcus aureus [13] = assay: Potency index, ratio of norfloxacin MIC to test compound MIC for antibacterial activity against Staphylococcus aureus ATCC 29213 assessed as bacterial growth inhibition by serial dilution method; type: functional
[14] = Cytotoxicity against human HaCaT cells assessed as cell viability at 12.5 ug/ml by CCK-8 assay relative to control; type: toxicity, cell-based; details: at 12.5 µg/mL, read-out: Activity
[15] = Cytotoxicity against human HaCaT cells assessed as cell viability at 50 ug/ml by CCK-8 assay relative to control; type: toxicity, cell-based; details: at 50 µg/mL, read-out: Activity
Enterococcus faecalis [16] = assay: Bactericidal activity against Enterococcus faecalis assessed as log reduction in bacterial colony count at 1 times MIC measured after 6 hrs; type: functional
Enterococcus faecalis [17] = assay: Bactericidal activity against Enterococcus faecalis assessed as log reduction in bacterial colony count at 4 times MIC measured after 6 hrs; type: functional
Enterococcus faecalis [18] = assay: Inhibition of biofilm formation in Enterococcus faecalis at 2 ug/ml incubated for 24 hrs by crystal violet staining based analysis relative to control; type: functional
[19] = Induction of intracellular ROS accumulation in Enterococcus faecalis assessed as fold increase in fluorescence intensity at 8 times MIC by DCFH-DA dye based fluorescence assay; type: functional
Calf thymus DNA [20] = assay: Binding affinity to calf thymus DNA assessed as red shift in absorption peak by UV-Vis spectrophotometric analysis; details: Bos taurus
Calf thymus DNA [21] = assay: Binding affinity to calf thymus DNA assessed as DNA-compound complex formation by measuring hyperchromicity by UV-Vis spectrophotometric analysis; type: tissue-based; details: Bos taurus
Calf thymus DNA [22] = assay: Binding affinity to calf thymus DNA assessed as binding constant by UV-Vis spectrophotometric analysis; details: Bos taurus
Calf thymus DNA [23] = assay: Binding affinity to calf thymus DNA assessed as reduction in acridine orange-DNA complex formation by competitive binding assay; details: Bos taurus
Staphylococcus aureus [24] = assay: Potency index, ratio of norfloxacin MIC to test compound MIC for antibacterial activity against methicillin-resistant Staphylococcus aureus N315 assessed as bacterial growth inhibition by serial dilution method; type: functional
Staphylococcus aureus [25] = assay: Potency index, ratio of ciprofloxacin MIC to test compound MIC for antibacterial activity against methicillin-resistant Staphylococcus aureus N315 assessed as bacterial growth inhibition by serial dilution method; type: functional
Candida parapsilosis = assay: Antifungal activity against Candida parapsilosis ATCC 22019 assessed as inhibition of fungal growth; type: functional; details: Lodderomyces parapsilosis
Candida tropicalis = assay: Antifungal activity against Candida tropicalis assessed as inhibition of fungal growth; type: functional

Row | SMILES | MIC (Staphylococcus aureus [1]) [µg/mL] | MIC (Enterococcus faecalis [2]) [µg/mL] | MIC (Staphylococcus aureus [3]) [µg/mL] | MIC (Staphylococcus aureus [4]) [µg/mL] | MIC (Staphylococcus aureus [5]) [µg/mL] | MIC (Klebsiella pneumoniae) [µg/mL] | MIC (Escherichia coli [6]) [µg/mL] | MIC (Escherichia coli [7]) [µg/mL] | MIC (Pseudomonas aeruginosa [8]) [µg/mL] | MIC (Pseudomonas aeruginosa [9]) [µg/mL] | MIC (Acinetobacter baumannii) [µg/mL] | MIC (Aspergillus fumigatus) [µg/mL] | further results
1 | CCn1cc(C(=O)O)c(=O)c2cc(F)c(N3CCN(c4ncccn4)CC3)cc21 | 2 (≈ 5.03 µM) | 8 (≈ 20.1 µM) | 64 (≈ 161 µM) | 8 (≈ 20.1 µM) | 32 (≈ 80.5 µM) | 4 (≈ 10.1 µM) | 16 (≈ 40.3 µM) | 64 (≈ 161 µM) | 16 (≈ 40.3 µM) | 128 (≈ 322 µM) | 64 (≈ 161 µM) | 2 (≈ 5.03 µM) | 
2 | CCn1cc(C(=O)O)c(=O)c2cc(F)c(N3CCN(c4nccc(N)n4)CC3)cc21 | 1 (≈ 2.42 µM) | 0.25 (≈ 0.606 µM) | 1 (≈ 2.42 µM) | 0.5 (≈ 1.21 µM) | 0.5 (≈ 1.21 µM) | 0.5 (≈ 1.21 µM) | 4 (≈ 9.7 µM) | 16 (≈ 38.8 µM) | 0.25 (≈ 0.606 µM) | 0.5 (≈ 1.21 µM) | 4 (≈ 9.7 µM) | 2 (≈ 4.85 µM) | Ratio (Enterococcus faecalis [10]): 16; Ratio (Enterococcus faecalis [11]): 4; Ratio (Staphylococcus aureus [12]): 4; Ratio (Staphylococcus aureus [13]): 8; viability at 12.5 ug/ml [14]: > 90%; viability at 50 ug/ml [15]: 70%; log(activity) (Enterococcus faecalis [16]): 2.5; log(activity) (Enterococcus faecalis [17]): 3.5; inhibition at 2 µg/mL (Enterococcus faecalis [18]): 53.9%; fold change (FC) [19]: 2.5; Activity (Calf thymus DNA [20]): Active; Activity (Calf thymus DNA [21]): Active; K (Calf thymus DNA [22]): 1.01 10^5L/mol; Activity (Calf thymus DNA [23]): Active
3 | O=C(O)c1cn(C2CC2)c2cc(N3CCN(c4ncc(F)cn4)CC3)c(F)cc2c1=O | 1 (≈ 2.34 µM) | 8 (≈ 18.7 µM) | 8 (≈ 18.7 µM) | 8 (≈ 18.7 µM) | 32 (≈ 74.9 µM) | 128 (≈ 299 µM) | 128 (≈ 299 µM) | 8 (≈ 18.7 µM) | 64 (≈ 150 µM) | 256 (≈ 599 µM) | > 256 |  | Ratio (Staphylococcus aureus [24]): 8; Ratio (Staphylococcus aureus [25]): 2
4 | CCn1cc(C(=O)O)c(=O)c2cc(F)c(N3CCN(c4ncc(OC)cn4)CC3)cc21 | 1 (≈ 2.34 µM) | 1 (≈ 2.34 µM) | 2 (≈ 4.68 µM) | 32 (≈ 74.9 µM) | 8 (≈ 18.7 µM) | 64 (≈ 150 µM) | 64 (≈ 150 µM) | 2 (≈ 4.68 µM) | 32 (≈ 74.9 µM) | 128 (≈ 299 µM) | 128 (≈ 299 µM) | 2 (≈ 4.68 µM) | 
5 | COc1cnc(N2CCN(c3cc4c(cc3F)c(=O)c(C(=O)O)cn4C3CC3)CC2)nc1 | 32 (≈ 72.8 µM) | 32 (≈ 72.8 µM) | 256 (≈ 583 µM) | 8 (≈ 18.2 µM) | 2 (≈ 4.55 µM) | 16 (≈ 36.4 µM) | 64 (≈ 146 µM) | 4 (≈ 9.1 µM) | 64 (≈ 146 µM) | 32 (≈ 72.8 µM) | 1 (≈ 2.28 µM) |  | MIC (Candida parapsilosis): 2 µg/mL (≈ 4.55 µM); MIC (Candida tropicalis): 2 µg/mL (≈ 4.55 µM)
6 | CCn1cc(C(=O)O)c(=O)c2cc(F)c(N3CCNCC3)cc21 [NORFLOXACIN] | 8 (≈ 25.1 µM) | 4 (≈ 12.5 µM) | 4 (≈ 12.5 µM) | 2 (≈ 6.26 µM) | 4 (≈ 12.5 µM) | 4 (≈ 12.5 µM) | 8 (≈ 25.1 µM) | 8 (≈ 25.1 µM) | 4 (≈ 12.5 µM) | 4 (≈ 12.5 µM) | 2 (≈ 6.26 µM) |  | 
7 | Cc1cnc(N2CCN(c3cc4c(cc3F)c(=O)c(C(=O)O)cn4C3CC3)CC2)nc1 | 256 (≈ 605 µM) | 4 (≈ 9.45 µM) | 128 (≈ 302 µM) | 2 (≈ 4.72 µM) | 64 (≈ 151 µM) | > 256 | 64 (≈ 151 µM) | 8 (≈ 18.9 µM) | 2 (≈ 4.72 µM) | 256 (≈ 605 µM) | 128 (≈ 302 µM) |  | 
8 | O=C(O)c1cn(C2CC2)c2cc(N3CCN(c4ncc(Br)cn4)CC3)c(F)cc2c1=O | 128 (≈ 262 µM) | 128 (≈ 262 µM) | 16 (≈ 32.8 µM) | 16 (≈ 32.8 µM) | 8 (≈ 16.4 µM) | 128 (≈ 262 µM) | 64 (≈ 131 µM) | 128 (≈ 262 µM) | 16 (≈ 32.8 µM) | 32 (≈ 65.5 µM) | 32 (≈ 65.5 µM) |  | 
9 | CCn1cc(C(=O)O)c(=O)c2cc(F)c(N3CCN(c4nccc(C(F)(F)F)n4)CC3)cc21 | > 256 | 64 (≈ 138 µM) | > 256 | 256 (≈ 550 µM) | 128 (≈ 275 µM) | 128 (≈ 275 µM) | > 256 | 256 (≈ 550 µM) | 128 (≈ 275 µM) | > 256 | 128 (≈ 275 µM) |  | 
10 | CCn1cc(C(=O)O)c(=O)c2cc(F)c(N3CCN(c4nccc(C)n4)CC3)cc21 | 32 (≈ 77.8 µM) | 1 (≈ 2.43 µM) | 4 (≈ 9.72 µM) | 4 (≈ 9.72 µM) | 16 (≈ 38.9 µM) | 4 (≈ 9.72 µM) | 64 (≈ 156 µM) | 1 (≈ 2.43 µM) | 128 (≈ 311 µM) | 16 (≈ 38.9 µM) | 256 (≈ 622 µM) |  | 
